Test system: 422866-222-R5-J1-PDC complex spheroid viability
Test: Anticancer human tumor 422866-222-R5-J1-PDC patient-derived pancreatic adenocarcinoma cell line growth inhibition [POLQ]
Conditions: for IC50: curve of first compound; for viability, T/C: stronger effect = lower value
Method in brief: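 Complex spheroid viability model combining PDC tumour cells with endothelial (HUVEC) and MSC stromal cells. Novobiocin, ART-558 or RP6685 were tested singly and in combination with standard and investigational anticancer drugs. Each was titrated in half-log steps from near clinical Cmax, or from 10 microM where Cmax was unknown.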

[1] = second compound 0.0316 µM, first compound 0.0316 µM
[2] = second compound 0.0316 µM, first compound 0.1 µM
[3] = second compound 0.0316 µM, first compound 0.316 µM
[4] = second compound 0.0316 µM, first compound 1 µM
[5] = second compound 0.0316 µM, first compound 3.16 µM
[6] = second compound 0.0316 µM, first compound 10 µM
[7] = second compound 0.1 µM, first compound 0.0316 µM
[8] = second compound 0.1 µM, first compound 0.1 µM
[9] = second compound 0.1 µM, first compound 0.316 µM
[10] = second compound 0.1 µM, first compound 1 µM
[11] = second compound 0.1 µM, first compound 3.16 µM
[12] = second compound 0.1 µM, first compound 10 µM
[13] = second compound 0.316 µM, first compound 0.0316 µM
[14] = second compound 0.316 µM, first compound 0.1 µM
[15] = second compound 0.316 µM, first compound 0.316 µM
[16] = second compound 0.316 µM, first compound 1 µM
[17] = second compound 0.316 µM, first compound 3.16 µM
[18] = second compound 0.316 µM, first compound 10 µM
[19] = second compound 1 µM, first compound 0.0316 µM
[20] = second compound 1 µM, first compound 0.1 µM
[21] = second compound 1 µM, first compound 0.316 µM
[22] = second compound 1 µM, first compound 1 µM
[23] = second compound 1 µM, first compound 3.16 µM
[24] = second compound 1 µM, first compound 10 µM
[25] = second compound 3.16 µM, first compound 0.0316 µM
[26] = second compound 3.16 µM, first compound 0.1 µM
[27] = second compound 3.16 µM, first compound 0.316 µM
[28] = second compound 3.16 µM, first compound 1 µM
[29] = second compound 3.16 µM, first compound 3.16 µM
[30] = second compound 3.16 µM, first compound 10 µM
[31] = second compound 10 µM, first compound 0.0316 µM
[32] = second compound 10 µM, first compound 0.1 µM
[33] = second compound 10 µM, first compound 0.316 µM
[34] = second compound 10 µM, first compound 1 µM
[35] = second compound 10 µM, first compound 3.16 µM
[36] = second compound 10 µM, first compound 10 µM
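Also: spheroids exposed to compounds for one week before readout.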
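For viability, T/C in this document: percent of DMSO vehicle wells luminescence so 100% = untreated viability.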

CC(=O)O[C@H]1C(=O)[C@@]2(C)[C@H]([C@H](OC(=O)c3ccccc3)[C@]3(O)C[C@H](OC(=O)[C@H](O)[C@@H](NC(=O)c4ccccc4)c4ccccc4)C(C)=C1C3(C)C)[C@]1(OC(C)=O)CO[C@@H]1C[C@@H]2O + Nc1ccc(C#CCN(C(=O)Cc2ncc(C(F)(F)F)cc2C(F)(F)F)c2ccc(F)cc2)nn1
IC50 (second compound 0.0316 µM): > 3000 nM | IC50 (second compound 0.1 µM): > 3000 nM | IC50 (second compound 0.316 µM): < 9.49 nM | IC50 (second compound 1 µM): > 3000 nM | IC50 (second compound 3.16 µM): < 9.49 nM | IC50 (second compound 10 µM): > 3000 nM | viability, T/C (second compound 0.0316 µM, first compound 0.00949 µM): 60.5% | viability, T/C (second compound 0.0316 µM, first compound 0.03 µM): 56% | viability, T/C (second compound 0.0316 µM, first compound 0.0949 µM): 48.5% | viability, T/C (second compound 0.0316 µM, first compound 0.3 µM): 51.8% | viability, T/C (second compound 0.0316 µM, first compound 0.949 µM): 61.9% | viability, T/C (second compound 0.0316 µM, first compound 3 µM): 63.6% | viability, T/C (second compound 0.1 µM, first compound 0.00949 µM): 56.8% | viability, T/C (second compound 0.1 µM, first compound 0.03 µM): 58.3% | viability, T/C (second compound 0.1 µM, first compound 0.0949 µM): 53.6% | viability, T/C (second compound 0.1 µM, first compound 0.3 µM): 46.4% | viability, T/C (second compound 0.1 µM, first compound 0.949 µM): 53% | viability, T/C (second compound 0.1 µM, first compound 3 µM): 65.4% | viability, T/C (second compound 0.316 µM, first compound 0.00949 µM): 53.3% | viability, T/C (second compound 0.316 µM, first compound 0.03 µM): 43.9% | viability, T/C (second compound 0.316 µM, first compound 0.0949 µM): 51.4% | viability, T/C (second compound 0.316 µM, first compound 0.3 µM): 53.4% | viability, T/C (second compound 0.316 µM, first compound 0.949 µM): 57% | viability, T/C (second compound 0.316 µM, first compound 3 µM): 69.5% | viability, T/C (second compound 1 µM, first compound 0.00949 µM): 59.8% | viability, T/C (second compound 1 µM, first compound 0.03 µM): 46.4% | viability, T/C (second compound 1 µM, first compound 0.0949 µM): 50.6% | viability, T/C (second compound 1 µM, first compound 0.3 µM): 51.9% | viability, T/C (second compound 1 µM, first compound 0.949 µM): 56.8% | viability, T/C (second compound 1 µM, first compound 3 µM): 65.7% | viability, T/C (second compound 3.16 µM, first compound 0.00949 µM): 56.1% | viability, T/C (second compound 3.16 µM, first compound 0.03 µM): 46.7% | viability, T/C (second compound 3.16 µM, first compound 0.0949 µM): 46.4% | viability, T/C (second compound 3.16 µM, first compound 0.3 µM): 47.8% | viability, T/C (second compound 3.16 µM, first compound 0.949 µM): 74.8% | viability, T/C (second compound 3.16 µM, first compound 3 µM): 66.1% | viability, T/C (second compound 10 µM, first compound 0.00949 µM): 55.3% | viability, T/C (second compound 10 µM, first compound 0.03 µM): 55.8% | viability, T/C (second compound 10 µM, first compound 0.0949 µM): 54% | viability, T/C (second compound 10 µM, first compound 0.3 µM): 65.8% | viability, T/C (second compound 10 µM, first compound 0.949 µM): 52.6% | viability, T/C (second compound 10 µM, first compound 3 µM): 75%

COc1cc(C2c3cc4c(cc3C(OC3OC5COC(C)OC5C(O)C3O)C3COC(=O)C23)OCO4)cc(OC)c1O (stereo unspecified) + Nc1ccc(C#CCN(C(=O)Cc2ncc(C(F)(F)F)cc2C(F)(F)F)c2ccc(F)cc2)nn1
IC50 (second compound 0.0316 µM): 779 nM | IC50 (second compound 0.1 µM): 906 nM | IC50 (second compound 0.316 µM): 555 nM | IC50 (second compound 1 µM): 640 nM | IC50 (second compound 3.16 µM): 367 nM | IC50 (second compound 10 µM): 534 nM | viability, T/C [1]: 90.9% | viability, T/C [2]: 97.1% | viability, T/C [3]: 62.7% | viability, T/C [4]: 49.6% | viability, T/C [5]: 33.5% | viability, T/C [6]: 30.6% | viability, T/C [7]: 110% | viability, T/C [8]: 90.1% | viability, T/C [9]: 76.2% | viability, T/C [10]: 46.4% | viability, T/C [11]: 31.2% | viability, T/C [12]: 28.8% | viability, T/C [13]: 123% | viability, T/C [14]: 92.1% | viability, T/C [15]: 55.5% | viability, T/C [16]: 47.1% | viability, T/C [17]: 29.2% | viability, T/C [18]: 36.9% | viability, T/C [19]: 94.3% | viability, T/C [20]: 100% | viability, T/C [21]: 68.5% | viability, T/C [22]: 40.6% | viability, T/C [23]: 32.1% | viability, T/C [24]: 35.5% | viability, T/C [25]: 93.3% | viability, T/C [26]: 81.4% | viability, T/C [27]: 48.2% | viability, T/C [28]: 47.1% | viability, T/C [29]: 37.6% | viability, T/C [30]: 31.6% | viability, T/C [31]: 103% | viability, T/C [32]: 88.9% | viability, T/C [33]: 55.4% | viability, T/C [34]: 43.6% | viability, T/C [35]: 38.4% | viability, T/C [36]: 31.6%

COc1cccc2c1C(=O)c1c(O)c3c(c(O)c1C2=O)CC(O)(C(=O)CO)CC3OC1CC(N)C(O)C(C)O1 (stereo unspecified) + Nc1ccc(C#CCN(C(=O)Cc2ncc(C(F)(F)F)cc2C(F)(F)F)c2ccc(F)cc2)nn1
IC50 (second compound 0.0316 µM): 65.9 nM | IC50 (second compound 0.1 µM): 118 nM | IC50 (second compound 0.316 µM): 67.7 nM | IC50 (second compound 1 µM): 81 nM | IC50 (second compound 3.16 µM): 92.3 nM | IC50 (second compound 10 µM): 142 nM | viability, T/C [1]: 60% | viability, T/C [2]: 44.3% | viability, T/C [3]: 32.5% | viability, T/C [4]: 30.2% | viability, T/C [5]: 34.6% | viability, T/C [6]: 28.3% | viability, T/C [7]: 52.7% | viability, T/C [8]: 54.3% | viability, T/C [9]: 28.9% | viability, T/C [10]: 33.3% | viability, T/C [11]: 29.6% | viability, T/C [12]: 27.2% | viability, T/C [13]: 58.4% | viability, T/C [14]: 45.2% | viability, T/C [15]: 35.1% | viability, T/C [16]: 24.8% | viability, T/C [17]: 28.6% | viability, T/C [18]: 26.6% | viability, T/C [19]: 59.2% | viability, T/C [20]: 47.7% | viability, T/C [21]: 34.4% | viability, T/C [22]: 26.4% | viability, T/C [23]: 28.6% | viability, T/C [24]: 30.8% | viability, T/C [25]: 57.7% | viability, T/C [26]: 49.3% | viability, T/C [27]: 31.5% | viability, T/C [28]: 23% | viability, T/C [29]: 36% | viability, T/C [30]: 24.5% | viability, T/C [31]: 54.4% | viability, T/C [32]: 55.5% | viability, T/C [33]: 38.7% | viability, T/C [34]: 22.6% | viability, T/C [35]: 32.8% | viability, T/C [36]: 30.5%

Source: PubChem BioAssay AID1963844 (Molecular Pharmacology Branch, DTP, NCI, 2024)
